Data reported in ChEMBL document CHEMBL1201862, “PubChem BioAssay data set” (2004).
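Test compounds were applied to cells in 96-well plates for 48 hours at 5 doses. Here, GI50 denotes the concentration required for 50% inhibition of growth.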 Calls of active or inactive are those of the source. No stated cut-off is given here; in the data, active = GI50 up to about 1.1 µM and inactive = higher.

Columns and labels:
Experiment in all cases: NCI anticancer screen, dose series, 48 h
786-0 = tested on: 786-0
COLO 205 = tested on: COLO 205
EKVX = tested on: EKVX
HCC 2998 = tested on: HCC 2998
HCT-15 = tested on: HCT-15
HOP-62 = tested on: HOP-62
HOP-92 = tested on: HOP-92
IGROV-1 = tested on: IGROV-1
KM12 = tested on: KM12
NCI-H23 = tested on: NCI-H23
OVCAR-8 = tested on: OVCAR-8
SF-295 = tested on: SF-295
SK-MEL-28 = tested on: SK-MEL-28
SK-MEL-5 = tested on: SK-MEL-5
SK-OV-3 = tested on: SK-OV-3
SNB-75 = tested on: SNB-75
T47D = tested on: T47D
HCT-116 = tested on: HCT-116
NCI/ADR-RES = tested on: NCI/ADR-RES
BT-549 = tested on: BT-549

Row | SMILES | GI50 (786-0) | GI50 (COLO 205) | GI50 (EKVX) | GI50 (HCC 2998) | GI50 (HCT-15) | GI50 (HOP-62) | GI50 (HOP-92) | GI50 (IGROV-1) | GI50 (KM12) | GI50 (NCI-H23) | GI50 (OVCAR-8) | GI50 (SF-295) | GI50 (SK-MEL-28) | GI50 (SK-MEL-5) | GI50 (SK-OV-3) | GI50 (SNB-75) | GI50 (T47D) | GI50 (HCT-116) | GI50 (NCI/ADR-RES) | GI50 (BT-549)
1 | COc1ccc(NC(=O)/C(O)=C/C(=O)c2ccccc2)cc1 | > 10 µM (inactive) | > 10 µM (inactive) | > 10 µM (inactive) | > 10 µM (inactive) | > 10 µM | > 10 µM (inactive) | > 10 µM (inactive) | 7.38 µM (inactive) | > 10 µM (inactive) | > 10 µM (inactive) | > 10 µM (inactive) | > 10 µM (inactive) | > 10 µM (inactive) | > 10 µM (inactive) | > 10 µM (inactive) | > 10 µM (inactive) | > 10 µM (inactive) |  |  | 
2 | C/C=C(/C)C(=O)O[C@H]1C[C@@H]2[C@@H](O)c3occ(C)c3C[C@]2(C)[C@@H](C)C1 | 16.1 µM (inactive) | 16.2 µM (inactive) | 15.8 µM (inactive) | 16.6 µM (inactive) | 18.7 µM | 17.4 µM (inactive) | 17.4 µM (inactive) | 16.7 µM (inactive) | 16.3 µM (inactive) | 17.8 µM (inactive) | 19.2 µM (inactive) | 15.2 µM (inactive) | 16.3 µM (inactive) | 10.4 µM (inactive) | 17.1 µM (inactive) |  | 11.6 µM (inactive) | 15.2 µM (inactive) | 14.2 µM (inactive) | 
3 | CCN(CC)CC/N=c1\c2cc(OC)ccc2[nH]c2c([N+](=O)[O-])ccc(NCCN(CC)CC)c12 | 0.399 µM (active) | 0.875 µM (active) | 1.93 µM (inactive) | 0.718 µM (active) | 1.02 µM | 1.18 µM (inactive) | 1.83 µM (inactive) | 2.34 µM (inactive) | 0.875 µM (active) | 1.86 µM (inactive) | 0.482 µM (active) | 1.26 µM (inactive) | 4.11 µM (inactive) | 1.57 µM (inactive) | 3.12 µM (inactive) | 1.9 µM (inactive) | > 7.38 µM (inactive) | 0.853 µM (active) | 1.01 µM (active) | 
4 | O=C1c2ccccc2C2(O)c3cc4ccccc4cc3OC12O (stereo not drawn) | > 100 µM (inactive) | > 100 µM (inactive) | 41.7 µM (inactive) | 54 µM (inactive) | 53.2 µM | 83.8 µM (inactive) | 27.6 µM (inactive) | 85.7 µM (inactive) | 46.8 µM (inactive) | 55.6 µM (inactive) | 58.1 µM (inactive) | 34.2 µM (inactive) | 59.3 µM (inactive) | 30.1 µM (inactive) | > 100 µM (inactive) | 49.3 µM (inactive) |  | 69 µM (inactive) |  | 
5 | COc1cc(O)c2c(c1)C(=O)c1cc3c(c(O)c1C2=O)C(OC1OC(C)C(OC)C(O)C1OC)C(OC)C(C)(O)C3=O (stereo not drawn) | 5.28 µM (inactive) | 3.09 µM (inactive) | 3.37 µM (inactive) | 5.02 µM (inactive) | 3.15 µM | 5.46 µM (inactive) |  | 2.12 µM (inactive) | 3.7 µM (inactive) | 5.86 µM (inactive) | 2.36 µM (inactive) | 4.73 µM (inactive) | 7.01 µM (inactive) | 1.68 µM (inactive) | 13.3 µM (inactive) | 4.15 µM (inactive) |  | 2.81 µM (inactive) |  | 14.5 µM (inactive)
6 | CCOc1ccccc1NC(=O)C(=O)CC(=O)c1sc(Nc2nnc(-c3ccc(Cl)c(Cl)c3)o2)nc1C | > 100 µM (inactive) | > 100 µM (inactive) | > 100 µM (inactive) | > 100 µM (inactive) | > 100 µM | > 100 µM (inactive) | > 100 µM (inactive) | > 100 µM (inactive) | > 100 µM (inactive) | > 100 µM (inactive) | > 100 µM (inactive) | > 100 µM (inactive) | > 100 µM (inactive) | > 100 µM (inactive) | > 100 µM (inactive) | > 100 µM (inactive) |  | > 100 µM (inactive) |  | 
7 | CCCCCCC(=O)C/C(CCC(=O)N(Cc1ccccc1)Cc1ccccc1)=N\NC(N)=O | > 100 µM (inactive) | > 100 µM (inactive) | > 100 µM (inactive) | > 100 µM (inactive) | > 100 µM | > 100 µM (inactive) | > 100 µM (inactive) | > 100 µM (inactive) | > 100 µM (inactive) | > 100 µM (inactive) | > 100 µM (inactive) | > 100 µM (inactive) | > 100 µM (inactive) | > 100 µM (inactive) | > 100 µM (inactive) | > 100 µM (inactive) |  | > 100 µM (inactive) |  | 
8 | COc1ccc(/C=C2\NC(=S)N(CN3CCOCC3)C2=O)cc1 | > 100 µM (inactive) | > 100 µM (inactive) | > 100 µM (inactive) |  | > 100 µM | > 100 µM (inactive) | > 100 µM (inactive) | > 100 µM (inactive) | > 100 µM (inactive) | > 100 µM (inactive) | > 100 µM (inactive) | > 100 µM (inactive) | > 100 µM (inactive) | > 100 µM (inactive) | > 100 µM (inactive) | > 100 µM (inactive) |  | > 100 µM (inactive) | > 100 µM (inactive) | 
9 | COc1ccc(/C=C2\N=C3NC(=O)C(N4CCOCC4)=C(N)N3C2=O)cc1 | 53 µM (inactive) | > 100 µM (inactive) | 69.7 µM (inactive) | > 100 µM (inactive) | > 100 µM |  | > 100 µM (inactive) | 85.5 µM (inactive) | > 100 µM (inactive) | > 100 µM (inactive) | > 100 µM (inactive) | 59.7 µM (inactive) | > 100 µM (inactive) | > 100 µM (inactive) | > 100 µM (inactive) | 24.8 µM (inactive) | > 100 µM (inactive) | > 100 µM (inactive) | > 100 µM (inactive) | 
10 | CC(C)(C)c1ccc2c(c1)S(=O)(=O)Nc1ccccc1NS(=O)(=O)c1cc(C(C)(C)C)ccc1OCCOCCOCCO2 | > 100 µM (inactive) | > 100 µM (inactive) | 71.8 µM (inactive) | > 100 µM (inactive) | > 100 µM | > 100 µM (inactive) | 85.3 µM (inactive) | > 100 µM (inactive) | > 100 µM (inactive) | > 100 µM (inactive) | 70 µM (inactive) | 71 µM (inactive) | > 100 µM (inactive) | 93.8 µM (inactive) | 81.1 µM (inactive) | 39.2 µM (inactive) |  | > 100 µM (inactive) |  | 
11 | CCOC(=O)/C(C(=S)NCc1ccccc1)=C(/N)N1CCCC1 | > 100 µM (inactive) | > 100 µM (inactive) | > 100 µM (inactive) | > 100 µM (inactive) | > 100 µM | > 100 µM (inactive) | > 100 µM (inactive) | > 100 µM (inactive) | > 100 µM (inactive) | > 100 µM (inactive) | > 100 µM (inactive) | > 100 µM (inactive) | > 100 µM (inactive) | > 100 µM (inactive) |  |  | > 100 µM (inactive) | > 100 µM (inactive) | > 100 µM (inactive) | 
12 | CN1CC[C@]2(C)c3ccc(O)cc3CC3CCCC1C32C (stereo partly drawn) | > 100 µM (inactive) | > 100 µM (inactive) | > 100 µM (inactive) | > 100 µM (inactive) | > 100 µM | > 100 µM (inactive) | > 100 µM (inactive) | > 100 µM (inactive) | > 100 µM (inactive) | > 100 µM (inactive) | > 100 µM (inactive) | > 100 µM (inactive) | > 100 µM (inactive) | > 100 µM (inactive) | > 100 µM (inactive) | 80.9 µM (inactive) |  | > 100 µM (inactive) |  | 
